In US4206215A, “Antimicrobial bis-[4-(substituted-amino)-1-pyridinium]alkanes” (Sterling Drug Inc., priority 1977, dated 1980):
Like-named read-outs stand apart in the source and are kept apart here.

Assays:
S. Aureus Smith = experiment: In vitro antibacterial activity, MIC (modified Autotiter method); assay type: cell-based, Staphylococcus aureus; details: 18-20 hours at 37° C.; for MIC: Staphylococcus aureus, 20 h, read-out: MIC S. Aureus Smith
Method in brief: (§1)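 Steps: prepare compound at 1,000 mcg./ml.; load first cup; instrument transfers and halves concentration serially into sterile water; inoculated double-strength semisynthetic glucose medium added to every cup. Final concentrations 500 to 0.06 mcg./ml.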

E. coli 100/B22 = experiment: as above; assay type: cell-based, Escherichia coli; details: for MIC: Escherichia coli, 100/B22, 20 h, read-out: MIC E. coli 100/B22, 18-20 hours at 37° C.; for MIC E. coli 100/B22: 18-20 hours at 37° C.
Method in brief: as §1

E. coli AB1932-1 = experiment: as above; assay type: cell-based, Escherichia coli; details: 18-20 hours at 37° C.; for MIC: Escherichia coli, AB19321, 20 h, read-out: MIC E. coli AB1932-1
Method in brief: as §1

E. coli Vogel = experiment: as above; assay type: cell-based, Escherichia coli; details: 18-20 hours at 37° C.; for MIC: Escherichia coli, 20 h, read-out: MIC E. coli Vogel
Method in brief: as §1

K. pneum. 39645 = experiment: as above; assay type: cell-based, Klebsiella pneumoniae; details: 18-20 hours at 37° C.; for MIC: Klebsiella pneumoniae, 20 h, read-out: MIC K. pneum. 39645
Method in brief: as §1

P. mirab. MGH-1 = experiment: as above; assay type: cell-based, Proteus mirabilis; details: 18-20 hours at 37° C.; for MIC: Proteus mirabilis, 20 h, read-out: MIC P. mirab. MGH-1
Method in brief: as §1

Ps. aerug. MGH-2 = experiment: as above; assay type: cell-based, Pseudomonas aeruginosa; details: 18-20 hours at 37° C.; for MIC: Pseudomonas aeruginosa, 20 h, read-out: MIC Ps. aerug. MGH-2
Method in brief: as §1

S. pyogen. C203 = experiment: as above; assay type: cell-based, Streptococcus pyogenes; details: 18-20 hours at 37° C.; for MIC: Streptococcus pyogenes, 20 h, read-out: MIC S. pyogen. C203
Method in brief: as §1

A. niger 16404 = experiment: In vitro antifungal activity, MIC (modified Autotiter method); assay type: cell-based, Aspergillus niger; details: 18-20 hours at 37° C.
Method in brief: as §1

C. albicans 10231 = experiment: as above; assay type: cell-based, Candida albicans; details: 18-20 hours at 37° C.; for MIC: Candida albicans, 10231, 20 h, read-out: MIC C. albicans 10231
Method in brief: as §1

C. albicans Wisc. = experiment: as above; assay type: cell-based, Candida albicans; details: 18-20 hours at 37° C.; for MIC: Candida albicans, 20 h, read-out: MIC C. albicans Wisc.
Method in brief: as §1

T. menta. 9129 = experiment: as above; assay type: cell-based, Trichophyton mentagrophytes; details: 18-20 hours at 37° C.; for MIC: Trichophyton mentagrophytes, 20 h, read-out: MIC T. menta. 9129
Method in brief: as §1

[1] = tested on: Streptococcus mutans OMZ-61; experiment: Dental plaque-preventive effectiveness in the presence of sterile human saliva (50%); assay type: cell-based; details: 50% sterile human saliva
Method: The dental plaque preventive activity of certain of the compounds of the present invention was determined by measuring the ability of these compounds to inhibit the production of dental plaque by Streptococcus mutans OMZ-61 as follows:
A culture medium for the plaque-producing Streptococcus mutans OMZ-61 containing 1.5 g. of BBL beef extract, 5 g. of sodium chloride, 10 g. of dehydrated trypticase, 5 g. of sucrose and sufficient distilled water to give a total volume of 1000 ml. is adjusted to pH 7.0 and sterilized by membrane filtration. The medium is dispensed aseptically in 10-ml. aliquots into 150×16 mm. test tubes and stored at refrigeration temperature until used.
Two concentrations of the compound to be tested are prepared by dissolving 100 mg. of the compound in 1 ml. of distilled water with the aid of sufficient 0.1 N sodium hydroxide, 10% dimethylsulfoxide or 10% N,N-dimethylformamide and diluting the resulting solution to 10 ml. with distilled water. This 1.0% solution and a 1:10 dilution in distilled water (0.1%) are sterilized by membrane filtration before use.
A sterile piece of plaque-free natural tooth enamel or synthetic hydroxylapatite is suspended in each concentration of compound for two 1-minute periods, each followed by a 1-minute air drying period. Each piece is then suspended and agitated for 5 minutes in individual test tubes containing sterile distilled water (rinse). They are then suspended in 10 ml. of liquid beef extract medium to which has been added 0.3 ml. of a 24-hr. anaerobic culture of Streptococcus mutans. The tubes containing the "treated" hydroxylapatite and the Streptococcus mutans are then incubated anaerobically at 37° C. for 24 hours. The same process of two 1-minute soaks in the solution of compound, each followed by 1 minute of air drying and the final 5-minute rinse is repeated before once again suspending the hydroxylapatite in a fresh tube containing 10 ml. of beef extract medium and 0.3 ml. of inoculum. At the end of the second 24-hour period, each piece of hydroxylapatite is rinsed for 1 minute in 3 successive tubes of distilled water. These are then suspended for 1 minute in a solution of F, D & C Red No. 3 dye. This staining procedure is used in order to identify more easily the development of plaque after the 48-hour period of exposure to the plaque-producing organism. The staining period is followed by another 10-second rinse to remove excess dye. Any plaque formation stains a brilliant pink. […] Active compounds are tested at successively lower doses in order to determine the minimum effective concentration. On some occasions, the interference of plaque production is caused by the inhibition of growth of the organism in the culture medium because the compound has been leached from the hydroxylapatite to produce an antibacterial level in the medium. When this occurs, the compound is tested at lower concentrations until the growth of the organism in the surrounding medium is equal to that in the nonmedicated control culture. Plaque may or may not be formed at these lower concentrations.
Dental plaque-preventive effectiveness in the presence of sterile human saliva (50%) was determined for representative examples.

[2] = Acute oral toxicity (ALD50); assay type: in vivo; details: mouse, in vivo, po, mice, read-out: 7-Day ALD50
Method: (§2) The acute oral toxicity (ALD50) of several representative examples was determined as follows: Groups of 3 young adult male Swiss-Webster strain albino mice were fasted approximately 4 hours before medication and then medicated once orally by stomach tube.

[3] = tested on: young adult male Swiss-Webster strain albino mice; experiment: Acute oral toxicity (ALD50); assay type: in vivo
Method: as §2

[4] = suspension in 1% gum tragacanth
[5] = 125 mg/kg oral, suspension in 1% G.T.
[6] = 250 mg/kg oral, suspension in 1% G.T.
[7] = 500 mg/kg oral, suspension in 1% G.T.
[8] = 1000 mg/kg oral, suspension in 1% G.T.
[9] = 1250 mg/kg (so in the source) oral, suspension in 1% G.T.
[10] = 125 mg/kg oral, aqueous solution
[11] = 250 mg/kg oral, aqueous solution
[12] = 500 mg/kg oral, aqueous solution
[13] = 1000 mg/kg oral, aqueous solution

SMILES	MIC (S. Aureus Smith) [µg/mL]	MIC (E. coli 100/B22) [µg/mL]	MIC (E. coli AB1932-1) [µg/mL]	MIC (E. coli Vogel) [µg/mL]	MIC (K. pneum. 39645) [µg/mL]	MIC (P. mirab. MGH-1) [µg/mL]	MIC (Ps. aerug. MGH-2) [µg/mL]	MIC (S. pyogen. C203) [µg/mL]	MIC (C. albicans 10231) [µg/mL]	MIC (C. albicans Wisc.) [µg/mL]	MIC (T. menta. 9129) [µg/mL]	Dental Plaque Preventive Activity in 50% saliva Minimum Effective Conc. (%) [1]	LD50 at 168 h [2, 4] [mg/kg]	Mortality 7 Days [3, 5]	Mortality 24 Hrs [3, 5]	Mortality 7 Days [3, 7]	Mortality 24 Hrs [3, 7]	Mortality 7 Days [3, 8]	Mortality 24 Hrs [3, 8]	MIC A. niger 16404 (A. niger 16404) [µg/mL]	also measured
CCCCCCCCNc1cc[n+](CCCCCCCCC[n+]2ccc(NCCCCCCCC)cc2)cc1 [Example 44A, 1,9-bis-[4-(octylamino)-1-pyridinium]nonane dibromide]	1	1	1	1	1.95	15.6	3.9	0.5	1	1.95	1	0.005%	> 1000	0/3	0/3	0/3	0/3	0/3	0/3	–	MIC (A. niger 16404; Aspergillus niger, 16404, 20 h, read-out: MIC A. niger 16404): 3.9 µg/mL; Mortality 7 Days [3, 6]: 0/3; Mortality 24 Hrs [3, 6]: 0/3
CCCCCCCNc1cc[n+](CCCCCCCCCCCC[n+]2ccc(NCCCCCCC)cc2)cc1 [Example 4, 1,12-bis-[4-(heptylamino)-1-pyridinium]dodecane dichloride]	–	–	–	–	–	–	–	–	–	–	–	Ca. 0.005%	–	0/3	0/3	0/3	0/3	0/3	0/3	7.8	MIC S. Aureus Smith (S. Aureus Smith): 0.25 µg/mL; MIC E. coli 100/B22 (E. coli 100/B22): 0.5 µg/mL; MIC E. coli AB1932-1 (E. coli AB1932-1): 1.0 µg/mL; MIC E. coli Vogel (E. coli Vogel): 0.5 µg/mL; MIC K. pneum. 39645 (K. pneum. 39645): 1.95 µg/mL; MIC P. mirab. MGH-1 (P. mirab. MGH-1): 1.95 µg/mL; MIC Ps. aerug. MGH-2 (Ps. aerug. MGH-2): 3.9 µg/mL; MIC S. pyogen. C203 (S. pyogen. C203): 1.0 µg/mL; MIC C. albicans 10231 (C. albicans 10231): 1.95 µg/mL; MIC C. albicans Wisc. (C. albicans Wisc.): 1.95 µg/mL; MIC T. menta. 9129 (T. menta. 9129): 0.5 µg/mL; Mortality 7 Days [3, 9]: 0/3; Mortality 24 Hrs [3, 9]: 0/3; 7-Day ALD50 ([3]; oral, suspension in 1% gum tragacanth, 10080 min): > 1000 mg/kg
CCCCCCCCNc1cc[n+](CCCCCCCCCC[n+]2ccc(NCCCCCCCC)cc2)cc1 [10A,B, 1,10-bis-[4-(octylamino)-1-pyridinium]decane dichloride]	0.5	1	1	1.95	1.95	3.9	3.9	1	1.95	1.95	1.95	–	–	–	–	–	–	–	–	7.8	Dental Plaque Preventive Activity in 50% saliva Minimum Effective Conc. (%) ([1]; listed as 10 A, B): 0.005%; LD50 at 168 h ([2]; aqueous solution): > 1000 mg/kg; Mortality 7 Days [3, 10]: 0/3; Mortality 24 Hrs [3, 10]: 0/3; Mortality 7 Days [3, 11]: 0/3; Mortality 24 Hrs [3, 11]: 0/3; Mortality 7 Days [3, 12]: 0/3; Mortality 24 Hrs [3, 12]: 0/3; Mortality 7 Days [3, 13]: 0/3; Mortality 24 Hrs [3, 13]: 0/3
CCCCCCCCNc1cc[n+](CCCCCC[n+]2ccc(NCCCCCCCC)cc2)cc1 [Example 14]	–	–	–	–	–	–	–	–	–	–	–	0.1%	> 1000	0/3	0/3	0/3	0/3	1/3	0/3	15.6	MIC S. Aureus Smith (S. Aureus Smith): 0.25 µg/mL; MIC E. coli 100/B22 (E. coli 100/B22): 0.5 µg/mL; MIC E. coli AB1932-1 (E. coli AB1932-1): 0.5 µg/mL; MIC E. coli Vogel (E. coli Vogel): 1.0 µg/mL; MIC K. pneum. 39645 (K. pneum. 39645): 1.95 µg/mL; MIC P. mirab. MGH-1 (P. mirab. MGH-1): 15.6 µg/mL; MIC Ps. aerug. MGH-2 (Ps. aerug. MGH-2): 31.3 µg/mL; MIC S. pyogen. C203 (S. pyogen. C203): 0.5 µg/mL; MIC C. albicans 10231 (C. albicans 10231): 1.95 µg/mL; MIC C. albicans Wisc. (C. albicans Wisc.): 1.95 µg/mL; MIC T. menta. 9129 (T. menta. 9129): 1.0 µg/mL; Mortality 7 Days [3, 6]: 0/3; Mortality 24 Hrs [3, 6]: 0/3
